Test results published in publication PMC6359543, “Efficacy of Azatyrosine-Phenylbutyric Hydroxamides, a Histone Deacetylase Inhibitor, on Chemotherapy-Induced Gastrointestinal Mucositis” (International Journal of Molecular Sciences, 2019).
Like-named read-outs stand apart in the source and are kept apart here.

Columns and labels:
[1] = tested on: Salmonella typhimurium TA100; assay type: cell-based
Procedure: (§2) Five strains of Salmonella typhimurium, TA98, TA102, TA100, TA1537, and TA1535, were obtained from Moltox (Boone, NC, USA). Mutagenicity was evaluated by the incorporation method in the presence or absence of S9 metabolic activation [29]. A volume of 100 µL of each test bacterial culture (10^9 cells/mL), 2 mL soft agar (0.6% agar, 0.5% NaCl, 5 mM histidine, and 50 mM biotin, pH 7.4, 40–50 °C), 0.5 mL S9 mixture (if necessary), and AzP were mixed well in a test tube. […] The revertant colonies were counted, and a positive mutagenic response was identified when (i) the number of revertants was at least double the spontaneous yield; (ii) a statistical significance (p ≤ 0.05) was found; and (iii) a reproducible positive dose response was present.

acetyl-histone H3 = experiment: Western blot of acetyl-histone H3 in IEC-6 cells; assay type: cell-based, Rat; conditions: AzP 5, 10 and 20 μM, 24 h
Procedure: Figure 3 In vitro histone deacetylase (HDAC) activity. […] Cell lysates were used for acetyl-histone H3 protein expression by Western blot. Data are expressed as means ± SD from 3 independent experiments. *** p < 0.001 as compared with the resting and ** p < 0.01 as compared with the resting (B).
(§1) IEC-6 cells were incubated in different AzP concentrations with/without LPS stimulation for 24 h. The homogenate from cells or tissues was then centrifuged at 14,000× g for 10 min at 4 °C and the supernatant was collected. Protein separation was performed using 10% reducing SDS-PAGE, electrotransferred onto polyvinylidene difluoride (PVDF), and immunoblotted with antibodies against inflammatory proteins as well as β-actin as control. Densitometry was performed using BioLight software V2000.01 (Uhldingen-Mühlhofen, Germany). The optical density of specific protein was normalized to an internal control and expressed as a ratio to control.

[2] = tested on: Chinese Hamster Ovary cells (CHO-K1); experiment: Chromosome aberration assay; assay type: cell-based; conditions: for Number of cells with structural aberrations (%) B: chromosome break / Number of cells with structural aberrations (%) e: exchange / Number of cells with structural aberrations (%) G: chromosome gap / Number of cells with structural aberrations (%) b: chromatid break / Aberrant cell (%) With gap / Aberrant cell (%) Without gap / Number of cells with structural aberrations (%) D: dicentric / Number of cells with structural aberrations (%) g: chromatid gap: Chinese hamster
Procedure: Chinese hamster ovary epithelial cells (CHO-K1, American Type Culture Collection, Manassas, VA, USA) were cultured in 6-cm dishes at a density of 2 × 10^5 cells/mL for chromosomal abnormality analysis. […] Colemid (0.1 μg/mL) was administered 3 h before trypsinization, followed by treatment with 0.9% sodium citrate at 37 °C and Carnoy’s solution (methanol:acetic acid, 3:1). The cells were stained with 3% Giemsa solution in 0.07 M phosphate buffer (pH 6.8) on glass slides. […] The data were expressed as the total mean number of chromosomal aberrations per treatment ± standard deviation (SD) from three independent experiments.

IEC-6 cells [3] = experiment: Cisplatin-reduced IEC-6 cell viability; assay type: cell-based, Rat; conditions: data not shown
[4] = tested on: Salmonella typhimurium TA1537; experiment: Salmonella/microsome reversion assay (Ames test), TA1537; assay type: cell-based
Procedure: as §2

Pan HDAC enzyme = experiment: HDAC fluorometric activity assay, pan HDAC; assay type: biochemical
Procedure: Pan HDAC enzyme (all the known class I HDACs-HDAC1, HDAC2, HDAC3, HDAC8 and class II HDACs 4-7, 9 and 10), HDAC subtype 1, 3 and 4 activity were determined by using the HDAC fluorometric cellular activity assay (Enzo Life Sciences, Farmingdale, NY, USA) according to the manufacturer’s protocol. […] Percent activity for each of the test compounds is calculated as follows:
Activity = {(Sc − B)/(S° − B)} × 100. […] IC50 was then calculated and represented as mean ± SD.

IEC-6 cells [5] = experiment: LPS-induced MAPK/Akt phosphorylation in IEC-6 cells (Western blot); assay type: cell-based, Rat
Procedure: Figure 6 Western blotting of IEC-6 cells treated with LPS and/or AzP. (A) IEC-6 cells (1 × 10^6 cells/mL) were dispensed on 6 cm dishes and (A) treated with LPS (500 ng/mL) for 10, 20, 30, 60, and 90 min. Data expressed as means ± SD from 3 independent experiments. * p < 0.05 as compared with the resting. (B) Treatment with LPS (500 ng/mL) for 10 min as indicated. Cells were treated with the indicated concentrations of AzP (5, 10, and 20 μM) or vehicle for 30 min before treatment with LPS. Cell lysates were collected for Western blot targeting p-ERK phosphorylation (Thr202/Tyr204, B), MEK phosphorylation ([…], C), and Akt phosphorylation (Ser473, D). Data expressed as means ± SD from 3 independent experiments. ### p < 0.001 as compared with the resting, * p < 0.05, ** p < 0.01 and *** p < 0.001 as compared with the vehicle.
as §1

Procedure for C57BL/6 mice: C57BL/6 mice were treated with 11 mg/kg/day cisplatin on day 0. Gavages of 50, 100, and 250 mg/kg AzP were given on days −1, 0, and 1. From a total of 9 mice, 3 were sacrificed on days 3 and 5, and their intestine collected for further immunohistological observations. Weights were recorded daily until day 9.
For the mucositis model experiments using chemotherapy, 45 female C57BL/6 mice were randomly placed in 5 groups for 3 days of treatment with AzP (50–250 mg/kg) P.O. on days −1, 0 and 1. Cisplatin (11 mg/kg) was intraperitoneally injected on day 0 as the chemotherapy. Control mice were injected with an appropriate vehicle. Mice were weighed daily and expressed as relative mean body weight change (%) from baseline (day 0 = 100%) and monitored closely for signs of morbidity over the course of the weeks to follow. On days 3 and 5, 3 of 9 mice were randomly chosen from each group and sacrificed for further intestinal analysis (Figure 1B). Control mice were injected with HPβCD as vehicle.
Histological and immunohistological observations of the intestine were performed on mice pretreated with AzP or HPβCD, followed by a course of cisplatin chemotherapy as described above. The mice were euthanized, intestines were removed, and a segment of the swiss-rolled trimming jejunum underwent formalin fixation and paraffin embedding. Hematoxylin and eosin stain were performed to observe the morphometry of villus length and crypt depth [28]. Also, tissue sections were deparaffinized and rehydrated through a series of alcohols followed by antigen retrieval with Tris-EDTA buffer (10 mM TrisBase, 1 mM EDTA, 0.05% Tween 20, pH 9.0). Then, the HRP/DAB (ABC) Detection immunohistochemistry (IHC) Kit (Abcam, Cambridge, UK) was used. Tissue sections were quenched with endogenous peroxidase (3% hydrogen peroxide) for 10 min, followed by 5% Bovine serum albumin (BSA) blocking for 5 min and subsequent incubation with primary antibodies overnight at 4 °C. Following washing, the tissue sections were incubated with biotinylated secondary antibody for 10 min, followed by streptavidin peroxidase for another 10 min. After washing, the colorimetric reaction was developed by incubation with DAB substrate for 5 min and underwent microscopy observation.

CC(C)(C)OC(=O)NC(Cc1ccc(OCc2ccccc2)cn1)C(=O)Nc1ccc(CCCC(=O)NO)cc1 (stereo not shown) [AzP, Azatyrosine-phenylbutyric hydroxamides]
Ames test result, TA100 (-S9) ([1]; -S9): Negative
Revertant colonies per plate (+S9) TA100 ([1]; AzP 0.00245 mg/plate): 106.7±2.2
Revertant colonies per plate (-S9) TA100 ([1]; AzP 0.00245 mg/plate): 81±5
Revertant colonies per plate (+S9) TA100 ([1]; AzP 0.0049 mg/plate): 106±4.4
Revertant colonies per plate (-S9) TA100 ([1]; AzP 0.0049 mg/plate): 78.7±2.7
Revertant colonies per plate (+S9) TA100 ([1]; AzP 0.0098 mg/plate): 107.3±1.3
Revertant colonies per plate (-S9) TA100 ([1]; AzP 0.0098 mg/plate): 81.7±2.7
Revertant colonies per plate (+S9) TA100 ([1]; AzP 0.0195 mg/plate): 110.3±3.8
Revertant colonies per plate (-S9) TA100 ([1]; AzP 0.0195 mg/plate): 89.7±9
Revertant colonies per plate (+S9) TA100 ([1]; AzP 0.0391 mg/plate): 150.3±19.7
Revertant colonies per plate (-S9) TA100 ([1]; AzP 0.0391 mg/plate): 90.8±9.6
Revertant colonies per plate (+S9) TA100 ([1]; AzP 0.0781 mg/plate): 153±3.1
Revertant colonies per plate (-S9) TA100 ([1]; AzP 0.0781 mg/plate): 88.7±1.2
Revertant colonies per plate (+S9) TA100 ([1]; AzP 0.156 mg/plate): 104±8
Revertant colonies per plate (+S9) TA100 ([1]; AzP 0.3125 mg/plate): 92.2±5.2
Ames test result, TA100 (|S9) ([1]; second S9 group): Negative
histone acetylation (acetyl-histone H3, Western blot) (acetyl-histone H3): elevated histone acetylation
Chromosome aberration assay result [2]: Negative
Number of cells with structural aberrations (%) B: chromosome break ([2]; 3 h, 5 µg/mL): 0.00±0.00%
Number of cells with structural aberrations (%) e: exchange ([2]; 3 h, 5 µg/mL): 0.00±0.00%
Number of cells with structural aberrations (%) B: chromosome break ([2]; 3 h, 10 µg/mL): 0.00±0.00%
Number of cells with structural aberrations (%) G: chromosome gap ([2]; 3 h, 10 µg/mL): 0.00±0.00%
Number of cells with structural aberrations (%) b: chromatid break ([2]; 3 h, 10 µg/mL): 0.00±0.00%
Number of cells with structural aberrations (%) e: exchange ([2]; 3 h, 10 µg/mL): 0.00±0.00%
Number of cells with structural aberrations (%) B: chromosome break ([2]; 3 h, 20 µg/mL): 0.00±0.00%
Number of cells with structural aberrations (%) G: chromosome gap ([2]; 3 h, 20 µg/mL): 0.00±0.00%
Aberrant cell (%) With gap ([2]; 24 h, 5 µg/mL): 4.33±0.58%
Aberrant cell (%) Without gap ([2]; 24 h, 5 µg/mL): 1.67±1.53%
Number of cells with structural aberrations (%) B: chromosome break ([2]; 24 h, 5 µg/mL): 0.00±0.00%
Number of cells with structural aberrations (%) D: dicentric ([2]; 24 h, 5 µg/mL): 0.33±0.58%
Number of cells with structural aberrations (%) G: chromosome gap ([2]; 24 h, 5 µg/mL): 0.33±0.58%
Number of cells with structural aberrations (%) b: chromatid break ([2]; 24 h, 5 µg/mL): 1.00±1.00%
Number of cells with structural aberrations (%) e: exchange ([2]; 24 h, 5 µg/mL): 0.33±0.58%
Number of cells with structural aberrations (%) g: chromatid gap ([2]; 24 h, 5 µg/mL): 2.33±1.53%
Aberrant cell (%) With gap ([2]; 24 h, 10 µg/mL): 4.00±1.00%
Aberrant cell (%) Without gap ([2]; 24 h, 10 µg/mL): 2.67±1.53%
Number of cells with structural aberrations (%) B: chromosome break ([2]; 24 h, 10 µg/mL): 0.00±0.00%
Number of cells with structural aberrations (%) D: dicentric ([2]; 24 h, 10 µg/mL): 0.67±0.58%
Number of cells with structural aberrations (%) G: chromosome gap ([2]; 24 h, 10 µg/mL): 0.67±0.58%
Number of cells with structural aberrations (%) b: chromatid break ([2]; 24 h, 10 µg/mL): 1.33±0.58%
Number of cells with structural aberrations (%) e: exchange ([2]; 24 h, 10 µg/mL): 0.67±0.58%
Number of cells with structural aberrations (%) g: chromatid gap ([2]; 24 h, 10 µg/mL): 1.33±0.58%
Aberrant cell (%) With gap ([2]; 24 h, 20 µg/mL): 4.33±0.58%
Aberrant cell (%) Without gap ([2]; 24 h, 20 µg/mL): 0.67±0.58%
Number of cells with structural aberrations (%) B: chromosome break ([2]; 24 h, 20 µg/mL): 0.33±0.58%
Number of cells with structural aberrations (%) D: dicentric ([2]; 24 h, 20 µg/mL): 0.00±0.00%
Number of cells with structural aberrations (%) G: chromosome gap ([2]; 24 h, 20 µg/mL): 0.33±0.58%
Number of cells with structural aberrations (%) b: chromatid break ([2]; 24 h, 20 µg/mL): 0.00±0.00%
Number of cells with structural aberrations (%) e: exchange ([2]; 24 h, 20 µg/mL): 0.00±0.00%
Number of cells with structural aberrations (%) g: chromatid gap ([2]; 24 h, 20 µg/mL): 3.33±0.58%
structure of intestinal mucosa, villus length and crypt depth (H&E) (C57BL/6 mice; 250 mg/kg/day group, days 3 and 5): restored
Relative mean body weight (day 0 = 100%) (C57BL/6 mice; day 5, AzP 50 mg/kg gavage days −1, 0, 1 + cisplatin 11 mg/kg): 78.7 ± 4.7%
Relative mean body weight (day 0 = 100%) (C57BL/6 mice; day 5, AzP 100 mg/kg gavage days −1, 0, 1 + cisplatin 11 mg/kg): 80.5 ± 3.4%
Relative mean body weight (day 0 = 100%) (C57BL/6 mice; day 5, AzP 250 mg/kg gavage days −1, 0, 1 + cisplatin 11 mg/kg): 89.1 ± 8.1%
MCP-1 expression in intestine (IHC) (C57BL/6 mice; day 5, cisplatin 11 mg/kg): dose-dependently reduced
Serum IL-6 level (ELISA) (C57BL/6 mice; day 5, cisplatin 11 mg/kg): inhibit cisplatin-induced IL-6 production in a dose-dependent manner
TNF-α expression in intestine (IHC) (C57BL/6 mice; day 5, cisplatin 11 mg/kg): dose-dependently reduced
influence on cisplatin-reduced cell viability (IEC-6 cells [3]): did not influence
Ames test result, TA1537 (-S9) ([4]; -S9): Negative
Revertant colonies per plate (+S9) TA1537 ([4]; AzP 0.00245 mg/plate): 32.3±3
Revertant colonies per plate (-S9) TA1537 ([4]; AzP 0.00245 mg/plate): 15±0.5
Revertant colonies per plate (+S9) TA1537 ([4]; AzP 0.0049 mg/plate): 35.3±2.2
Revertant colonies per plate (-S9) TA1537 ([4]; AzP 0.0049 mg/plate): 10.7±0.9
Revertant colonies per plate (+S9) TA1537 ([4]; AzP 0.0098 mg/plate): 29.3±2.2
Revertant colonies per plate (-S9) TA1537 ([4]; AzP 0.0098 mg/plate): 10±0.6
Revertant colonies per plate (+S9) TA1537 ([4]; AzP 0.0195 mg/plate): 27.3±2.7
Revertant colonies per plate (-S9) TA1537 ([4]; AzP 0.0195 mg/plate): 10±2
Revertant colonies per plate (+S9) TA1537 ([4]; AzP 0.0391 mg/plate): 22.1±2.5
Revertant colonies per plate (-S9) TA1537 ([4]; AzP 0.0391 mg/plate): 11.8±6
Revertant colonies per plate (+S9) TA1537 ([4]; AzP 0.0781 mg/plate): 16±2.5
Revertant colonies per plate (-S9) TA1537 ([4]; AzP 0.0781 mg/plate): 12±4.9
Revertant colonies per plate (+S9) TA1537 ([4]; AzP 0.156 mg/plate): 18±1
Revertant colonies per plate (-S9) TA1537 ([4]; AzP 0.156 mg/plate): 14.7±2
Ames test result, TA1537 (|S9) ([4]; second S9 group): Negative
IC50 (Pan HDAC enzyme): 1650 ± 103 nM
LPS-induced ERK activation (phosphorylation) (IEC-6 cells [5]; LPS 500 ng/mL 10 min, AzP 5–20 μM): dose-dependently reverse
LPS-induced Akt phosphorylation (IEC-6 cells [5]; LPS 10 min, AzP 5–20 μM): concentration-dependently reversed
LPS-induced MEK1/2 phosphorylation (IEC-6 cells [5]; LPS 10 min, AzP 5–20 μM): concentration-dependently reversed
JNK phosphorylation (IEC-6 cells [5]; LPS, data not shown): unaffected
p38 phosphorylation (IEC-6 cells [5]; LPS, data not shown): unaffected
IKK phosphorylation (IEC-6 cells [5]; Western blot): unaffected
p65 phosphorylation (IEC-6 cells [5]; Western blot): unaffected
